Data published in patent US12454521B2, “Targeted protein degradation” (C4 Therapeutics, Inc., priority 2018, dated 2025).
Where a name gives a salt, the structure may show the parent alone.

Molecular target: CRBN-DDB1 (Homo sapiens, UniProt Q96SW2)
Assay: CRBN-DDB1 fluorescence polarization (FP) binding assay
Conditions: displacement of Thalidomide-Alexa Fluor or Pomalidomide-fluorescein probe; 400 nM CRBN-DDB1, 5 nM probe, 0.05% pluronic acid, 60 min room temperature; read-out: FP binding to CRBN_DDB1.3 0.05% PA
Experimental: The measurement of the ability of representative Degrons to bind to CRBN-DDB1 was carried out using an established sensitive and quantitative in vitro fluorescence polarization (FP) based binding assay. (See, I. J. Enyedy et al, J. Med. Chem., 44: […] [2001]). Degrons were dispensed from serially diluted DMSO stock into black 384-well compatible fluorescence polarization plates using an Echo acoustic dispenser. Binding to CRBN-DDB1 was measured by displacement of either a (-)-Thalidomide- Alexa Fluor® or Pomalidomide-fluorescein conjugated probe dye. A 20 μL mixture containing 400 nM CRBN-DDB1 and 5 nM probe dye in 50 mM Hepes, pH 7.4, 200mM NaCl, 1% DMSO and 0.05% pluronic acid-127 acid was added to wells containing Degron and incubated at room temperature for 60 min. Matching control wells excluding CRBN-DDB1 were used to correct for background fluorescence. Plates were read on an Envision plate reader with appropriate FP filter sets. The corrected S (perpendicular) and P (parallel) values were used to calculate fluorescence polarization (FP) with the following equation: FP =1000*(S-G*P)/(S+G*P). The fractional amount of bound probe (FB) to CRBN-DDB1 as a function of Degron concentration was fitted according to Wang; FEBS Letters 360, (1995), 111-114 to obtain fits for parameter offsets and binding constant (KA) of Degron.

Chain of CRBN-DDB1 (Q96SW2 whole entry): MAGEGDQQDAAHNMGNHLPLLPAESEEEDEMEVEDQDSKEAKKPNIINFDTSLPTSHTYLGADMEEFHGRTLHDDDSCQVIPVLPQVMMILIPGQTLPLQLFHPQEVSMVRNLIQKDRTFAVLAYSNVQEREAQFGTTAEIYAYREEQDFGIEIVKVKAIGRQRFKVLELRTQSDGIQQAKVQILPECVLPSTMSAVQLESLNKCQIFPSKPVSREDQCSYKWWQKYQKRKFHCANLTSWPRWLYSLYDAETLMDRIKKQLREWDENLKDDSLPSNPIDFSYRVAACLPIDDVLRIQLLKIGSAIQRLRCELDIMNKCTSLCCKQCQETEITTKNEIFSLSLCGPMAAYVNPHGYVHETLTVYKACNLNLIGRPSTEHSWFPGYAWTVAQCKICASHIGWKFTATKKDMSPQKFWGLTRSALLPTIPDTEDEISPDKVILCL
Chain of CRBN-DDB1 (Q16531 whole entry partner): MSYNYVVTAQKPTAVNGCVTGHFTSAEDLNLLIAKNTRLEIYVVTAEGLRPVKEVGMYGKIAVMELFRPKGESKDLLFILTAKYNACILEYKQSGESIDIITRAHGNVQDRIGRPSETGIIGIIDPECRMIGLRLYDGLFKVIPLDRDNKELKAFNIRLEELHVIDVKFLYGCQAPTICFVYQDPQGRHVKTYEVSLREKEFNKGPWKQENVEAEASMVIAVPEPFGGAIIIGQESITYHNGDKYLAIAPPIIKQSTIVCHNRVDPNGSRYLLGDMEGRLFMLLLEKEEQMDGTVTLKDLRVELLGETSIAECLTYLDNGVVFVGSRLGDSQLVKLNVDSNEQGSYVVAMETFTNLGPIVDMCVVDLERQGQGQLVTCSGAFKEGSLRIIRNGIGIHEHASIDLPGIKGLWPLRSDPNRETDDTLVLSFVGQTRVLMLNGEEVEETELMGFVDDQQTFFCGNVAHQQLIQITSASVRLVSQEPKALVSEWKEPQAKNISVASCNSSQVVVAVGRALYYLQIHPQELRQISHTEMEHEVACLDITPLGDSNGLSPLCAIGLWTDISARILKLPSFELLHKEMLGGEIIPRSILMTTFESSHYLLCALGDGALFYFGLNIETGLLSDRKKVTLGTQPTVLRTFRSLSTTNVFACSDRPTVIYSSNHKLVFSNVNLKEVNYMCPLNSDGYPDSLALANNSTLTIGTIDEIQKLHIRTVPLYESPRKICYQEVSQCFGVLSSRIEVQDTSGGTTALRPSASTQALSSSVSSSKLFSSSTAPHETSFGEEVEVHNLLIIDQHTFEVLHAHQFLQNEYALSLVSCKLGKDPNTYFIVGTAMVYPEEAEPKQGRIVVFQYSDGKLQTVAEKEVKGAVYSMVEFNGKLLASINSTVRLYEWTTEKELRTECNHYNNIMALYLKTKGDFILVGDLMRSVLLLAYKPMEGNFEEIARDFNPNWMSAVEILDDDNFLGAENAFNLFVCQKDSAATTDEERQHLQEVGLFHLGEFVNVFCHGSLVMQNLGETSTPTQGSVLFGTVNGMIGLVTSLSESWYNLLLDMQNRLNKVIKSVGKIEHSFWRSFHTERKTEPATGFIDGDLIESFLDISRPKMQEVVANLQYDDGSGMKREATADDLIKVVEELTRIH

SMILES	Kd [µM]
O=C1CCN(c2ccc(C3CCNCC3)c(=O)[nH]2)C(=O)N1 [Compound 5, 1-(6-Oxo-5-(piperidin-4-yl)-1,6-dihydropyridin-2-yl)dihydropyrimidine-2,4(1H,3H)-dione Hydrochloride]	< 100
O=C1CCN(c2ccc(C3CCNCC3)cc2)C(=O)N1 [Compound 11, 1-[4-(4-piperidyl)phenyl]hexahydropyrimidine-2,4-dione; hydrochloride]	< 100
O=C(O)CCc1ccc(N2CCC(N3CCC(=O)NC3=O)CC2)cc1 [Compound 6, 3-[4-[4-(2,4-dioxohexahydropyrimidin-1-yl)-1-piperidyl]phenyl]propanoic acid]	< 50
O=C1CCN(c2ccc(N3CCNCC3)cc2)C(=O)N1 [Compound 10, 1-(4-Piperazin-1-yl-phenyl)-dihydro-pyrimidine-2,4-dione hydrochloride]	< 100
O=C1CCN(c2ccc(C3CCNCC3)[nH]c2=O)C(=O)N1 [Compound 7, 1-(2-Oxo-6-(piperidin-4-yl)-1,2-dihydropyridin-3-yl)dihydropyrimidine-2,4(1H,3H)-dione]	< 30
Cn1nc(N2CCC(=O)NC2=O)c2ccc(Br)cc21 [Compound 2, 1-(6-Bromo-1-methyl-1H-indazol-3-yl)dihydropyrimidine-2,4(1H,3H)-dione]	< 50
O=C1CCN(Cc2ccc(C3CCNCC3)cc2)C(=O)N1 [Compound 14, 1-(4-(Piperidin-4-yl)benzyl)dihydropyrimidine-2,4(1H,311)-dione TFA]	< 30

Next, values leading:

Kd [µM]	SMILES
< 100	O=C1CCN(c2cccc(C3CCNCC3)c2)C(=O)N1 [Compound 12, 1-(3-Piperidin-4-yl-phenyl)-dihydro-pyrimidine-2,4-dione hydrochloride]
< 100	O=C1CCN(c2cnn(C3CCNCC3)c2)C(=O)N1 [Compound 8, 1-[1-(4-piperidyl)pyrazol-4-yl]hexahydropyrimidine-2,4-dione]
< 30	O=C1CCN(c2ccc(N3CCNCC3)nc2)C(=O)N1 [Compound 1, 1-(6-(Piperazin-1-yl)pyridin-3-yl)dihydropyrimidine-2,4(1H,3H)-dione Hydrochloride]
